Biological target: T1, GABA A receptor α5β3γ2 (Homo sapiens, UniProt P18507+P31644)
T1 construct: expressed in transfected cells; host or cells: HEK293 cells, transiently transfected; membranes prepared
Assay: [3H]flumazenil competition binding, human GABA A α5β3γ2
Details: competition for [3H]flumazenil (0.5 nM) binding, HEK293 cells expressing human (transiently transfected) α5β3γ2; means of two determinations; read-out: Ki[nM] hα5
Protocol: Membrane Preparation and Binding Assay
The affinity of compounds at GABA A receptor subtypes was measured by competition for [3H]flumazenil (85 Ci/mmol; Roche) binding to HEK293 cells expressing rat (stably transfected) or human (transiently transfected) receptors of composition
Cell pellets were suspended in Krebs-tris buffer (4.8 mM KCl, 1.2 mM CaCl2, 1.2 mM MgCl2, 120 mM NaCl, 15 mM Tris; pH 7.5; binding assay buffer), homogenized by polytron for ca. 20 sec on ice and centrifuged for 60 min at 4° C. (50000 g; Sorvall, rotor: SM24=20000 rpm). The cell pellets were resuspended in Krebs-tris buffer and homogenized by polytron for ca. 15 sec on ice. Protein was measured (Bradford method, Bio-Rad) and aliquots of 1 mL were prepared and stored at −80° C.
Assays were incubated to equilibrium for 1 hour at 4° C. and harvested onto GF/C uni-filters (Packard) by filtration using a Packard harvester and washing with ice-cold wash buffer (50 mM Tris; pH 7.5). After drying, filter-retained radioactivity was detected by liquid scintillation counting. Ki values were calculated using Excel-Fit (Microsoft) and are the means of two determinations.

Compound | Ki
COc1cc(NCCN(C)C)c(F)cc1-c1nnc(-c2c(-c3ccccc3)noc2C)o1 [Example 135, N′-{2-Fluoro-5-methoxy-4-[5-(5-methyl-3-phenyl-isoxazol-4-yl)-[1,3,4]oxadiazol-2-yl]-phenyl}-N,N-dimethyl-ethane-1,2-diamine] | 9.4 nM
Cc1onc(-c2ccccc2)c1-c1nnc(-c2ccc(F)cc2F)o1 [Example 76, 2-(2,4-Difluoro-phenyl)-5-(5-methyl-3-phenyl-isoxazol-4-yl)-[1,3,4]oxadiazole] | 189 nM
Cc1onc(-c2ccccc2)c1-c1nnc(-c2ccc(N3CCS(=O)(=O)CC3)nc2)o1 [Example 141, 4-{5-[5-(5-Methyl-3-phenyl-isoxazol-4-yl)-[1,3,4]oxadiazol-2-yl]-pyridin-2-yl}-thiomorpholine 1,1-dioxide] | 17.7 nM
COc1cc(-n2nccn2)ccc1-c1nnc(-c2c(-c3ccccc3)noc2C)o1 [Example 85, 2-(2-Methoxy-4-[1,2,3]triazol-2-yl-phenyl)-5-(5-methyl-3-phenyl-isoxazol-4-yl)-[1,3,4]oxadiazole] | 20.6 nM
COc1cc(N2CCOCC2)ccc1-c1nnc(-c2c(-c3ccccc3)noc2N2CCOCC2)o1 [Example 107, 4-{4-[5-(2-Methoxy-4-morpholin-4-yl-phenyl)-[1,3,4]oxadiazol-2-yl]-3-phenyl-isoxazol-5-yl}-morpholine] | 31.1 nM
Cc1onc(-c2ccccc2)c1-c1nnc(-c2ccncc2)o1 [Example 40, 4-[5-(5-Methyl-3-phenyl-isoxazol-4-yl)-[1,3,4]oxadiazol-2-yl]-pyridine] | 179 nM
Cc1onc(-c2ccccc2)c1-c1nnc(-c2cc(F)c(F)cc2F)o1 [Example 118, 2-(5-Methyl-3-phenyl-isoxazol-4-yl)-5-(2,4,5-trifluoro-phenyl)-[1,3,4]oxadiazole] | 149 nM
Cc1onc(-c2ccccc2)c1-c1nnc(-c2ccc(N)cc2)o1 [Example 35, 4-[5-(5-Methyl-3-phenyl-isoxazol-4-yl)-[1,3,4]oxadiazol-2-yl]-phenylamine] | 31.2 nM
COc1cc(NC(=O)c2ccsc2)ccc1-c1nnc(-c2c(-c3ccccc3)noc2C)o1 [Example 23, Thiophene-3-carboxylic acid-{3-methoxy-4-[5-(5-methyl-3-phenyl-isoxazol-4-yl)-[1,3,4]oxadiazol-2-yl]-phenyl}-amide] | 18.3 nM
COc1ccccc1-c1nnc(-c2c(-c3ccccc3)noc2C2CC2)o1 [Example 69, 2-(5-Cyclopropyl-3-phenyl-isoxazol-4-yl)-5-(2-methoxy-phenyl)-[1,3,4]oxadiazole] | 8.1 nM

Now those with a lower Ki, led by results:

Ki | Compound
2.1 nM | COc1cc(N2CCOCC2)ccc1-c1nnc(-c2c(-c3ccccc3)noc2C2CC2)o1 [Example 77, 4-{4-[5-(5-Cyclopropyl-3-phenyl-isoxazol-4-yl)-[1,3,4]oxadiazol-2-yl]-3-methoxy-phenyl}-morpholine]
4.5 nM | COc1cc(N2CCSCC2)c(F)cc1-c1nnc(-c2c(-c3ccccc3)noc2C)o1 [Example 116, 4-{2-Fluoro-5-methoxy-4-[5-(5-methyl-3-phenyl-isoxazol-4-yl)-[1,3,4]oxadiazol-2-yl]-phenyl}-thiomorpholine]
4.6 nM | COc1cc(NC(C)=O)ccc1-c1nnc(-c2c(-c3ccccc3)noc2C)o1 [Example 89, N-{3-Methoxy-4-[5-(5-methyl-3-phenyl-isoxazol-4-yl)-[1,3,4]oxadiazol-2-yl]-phenyl}-acetamide]
6 nM | COc1cc(N2CCC(O)CC2)ccc1-c1nnc(-c2c(-c3ccccc3)noc2C)o1 [Example 29, 1-{3-Methoxy-4-[5-(5-methyl-3-phenyl-isoxazol-4-yl)-[1,3,4]oxadiazol-2-yl]-phenyl}-piperidin-4-ol]
2 nM | COc1cc(N2CCS(=O)(=O)CC2)c(F)cc1-c1nnc(-c2c(-c3ccccc3)noc2C)o1 [Example 117, 4-{2-Fluoro-5-methoxy-4-[5-(5-methyl-3-phenyl-isoxazol-4-yl)-[1,3,4]oxadiazol-2-yl]-phenyl}-thiomorpholine 1,1-dioxide]
